Reference: US20050191628A1, “Antibiotics based upon bacteriophage lysis proteins” (priority 1999, published 2005)

What was measured:
[1] = biological target: T1, MraY (Escherichia coli, UniProt P0A6W3); format: biochemical, E. coli; details: membranes of ET505 strains; average of 3 experiments ± standard deviation (tunicamycin: average of duplicates)
T1 construct: endogenous in cells; host or cells: E. coli K-12 ET505 (W3110 lysA::Tn10) membranes, carrying pJFlacZK (control) or pEmycZK (E-expressing)
T1 sequence (P0A6W3 1-360): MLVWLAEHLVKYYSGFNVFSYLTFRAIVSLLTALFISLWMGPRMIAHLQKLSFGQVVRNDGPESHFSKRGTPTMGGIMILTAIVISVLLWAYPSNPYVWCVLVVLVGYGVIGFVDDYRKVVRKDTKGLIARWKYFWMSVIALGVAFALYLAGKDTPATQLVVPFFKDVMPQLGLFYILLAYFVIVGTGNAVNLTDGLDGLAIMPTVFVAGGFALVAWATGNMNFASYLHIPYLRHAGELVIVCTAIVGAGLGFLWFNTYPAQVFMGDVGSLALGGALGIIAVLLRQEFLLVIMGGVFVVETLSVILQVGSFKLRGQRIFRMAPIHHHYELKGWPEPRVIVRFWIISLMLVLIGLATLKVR

[2] = biological target: T2, Rfe (Escherichia coli, UniProt P0AC78); format: biochemical, E. coli; details: membranes of ET505 strains; average of 3 experiments ± standard deviation
T2 construct: endogenous in cells; host or cells: E. coli K-12 ET505 (W3110 lysA::Tn10) membranes, carrying pJFlacZK (control) or pEmycZK (E-expressing)
T2 sequence (P0AC78 1-367): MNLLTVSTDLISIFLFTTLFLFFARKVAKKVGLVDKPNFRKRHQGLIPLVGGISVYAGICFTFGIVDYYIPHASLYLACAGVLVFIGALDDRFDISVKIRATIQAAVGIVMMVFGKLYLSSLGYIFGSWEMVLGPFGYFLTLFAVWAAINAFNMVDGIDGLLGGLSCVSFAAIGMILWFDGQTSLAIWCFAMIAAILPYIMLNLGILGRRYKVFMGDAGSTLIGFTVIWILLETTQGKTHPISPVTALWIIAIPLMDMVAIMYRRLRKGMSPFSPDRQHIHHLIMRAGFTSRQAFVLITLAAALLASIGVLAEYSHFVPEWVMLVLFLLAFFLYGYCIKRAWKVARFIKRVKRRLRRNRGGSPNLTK

## tunicamycin
[1]
  cpm of [3H]-UMP converted to [3H]-UDP-MurNAc-pentapeptide in membrane preparations by MraY: 2000 cpm
[2]
  cpm of [3H]-UMP converted to [3H]-UDP-GlcNAc in membrane preparations by Rfe: 3400 ± 500 cpm
